From paper PMC7162861, “Synthesis, cytotoxicity, pharmacokinetic profile, binding with DNA and BSA of new imidazo[1,2-a]pyrazine-benzo[d]imidazol-5-yl hybrids” (Scientific Reports, 2020)

Key:
[1] = system: HCT-116; experiment: NCI cytotoxicity screen, Colon Cancer panel; assay type: cell-based; details: Homo sapiens, single dose 10 µM, negative = lethal, read-out: Percent growth inhibition
Procedure: (§1) Cytotoxicity was performed at National Cancer Institute (NCI), Bethesda, USA as per their protocols.

[2] = system: HT29; experiment: NCI cytotoxicity screen, Colon Cancer panel; assay type: cell-based; details: Homo sapiens, HT-29; HT29; single dose 10 µM; negative = lethal; read-out: Percent growth inhibition
Procedure: as §1

[3] = system: HCT-15; experiment: NCI cytotoxicity screen, Colon Cancer panel; assay type: cell-based; details: Homo sapiens, single dose 10 µM, negative = lethal, read-out: Percent growth inhibition
Procedure: as §1

[4] = system: COLO 205; experiment: NCI cytotoxicity screen, Colon Cancer panel; assay type: cell-based; details: Homo sapiens, single dose 10 µM, negative = lethal, read-out: Percent growth inhibition
Procedure: as §1

[5] = system: OVCAR-3; experiment: NCI cytotoxicity screen, Ovarian Cancer panel; assay type: cell-based, human; details: Homo sapiens; OVCAR-3; single dose 10 µM; negative = lethal; read-out: Percent growth inhibition
Procedure: as §1

[6] = system: DU-145; experiment: NCI cytotoxicity screen, Prostate Cancer panel; assay type: cell-based, human; details: Homo sapiens, single dose 10 µM, negative = lethal, read-out: Percent growth inhibition
Procedure: as §1

[7] = system: PC-3; experiment: NCI cytotoxicity screen, Prostate Cancer panel; assay type: cell-based, human; details: Homo sapiens, single dose 10 µM, negative = lethal, read-out: Percent growth inhibition
Procedure: as §1

[8] = system: HCC-2998; experiment: NCI cytotoxicity screen, Colon Cancer panel; assay type: cell-based, human; details: Homo sapiens; HCC-2998; single dose 10 µM; negative = lethal; read-out: Percent growth inhibition
Procedure: as §1

[9] = system: SW-620; experiment: NCI cytotoxicity screen, Colon Cancer panel; assay type: cell-based, human; details: Homo sapiens, single dose 10 µM, negative = lethal, read-out: Percent growth inhibition
Procedure: as §1

[10] = system: KM12; experiment: NCI cytotoxicity screen, Colon Cancer panel; assay type: cell-based, human; details: Homo sapiens, single dose 10 µM, negative = lethal, read-out: Percent growth inhibition
Procedure: as §1

[11] = Experimental log P, shake-flask method; assay type: physicochemical; details: n-octanol/phosphate buffer pH 7.4, read-out: Exp. Log P
Outline: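 Shake-flask partitioning between n-octanol and phosphate buffer pH 7.4, shaken 50 min, then centrifuged 35 min at 2500 rpm. Buffer-phase absorbance at each compound's λmax measured before and after partitioning. P calculated from absorbance drop and phase volume ratio.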

[12] = system: SF-268; experiment: NCI cytotoxicity screen, CNS Cancer panel; assay type: cell-based; details: Homo sapiens, single dose 10 µM, negative = lethal, read-out: Percent growth inhibition
Procedure: as §1

[13] = system: SF-295; experiment: NCI cytotoxicity screen, CNS Cancer panel; assay type: cell-based; details: Homo sapiens, single dose 10 µM, negative = lethal, read-out: Percent growth inhibition
Procedure: as §1

[14] = system: SF-539; experiment: NCI cytotoxicity screen, CNS Cancer panel; assay type: cell-based; details: Homo sapiens, single dose 10 µM, negative = lethal, read-out: Percent growth inhibition
Procedure: as §1

[15] = system: SNB-19; experiment: NCI cytotoxicity screen, CNS Cancer panel; assay type: cell-based; details: Homo sapiens; SNB-19; single dose 10 µM; negative = lethal; read-out: Percent growth inhibition
Procedure: as §1

[16] = system: SNB-75; experiment: NCI cytotoxicity screen, CNS Cancer panel; assay type: cell-based; details: Homo sapiens, single dose 10 µM, negative = lethal, read-out: Percent growth inhibition
Procedure: as §1

[17] = system: U251; experiment: NCI cytotoxicity screen, CNS Cancer panel; assay type: cell-based; details: Homo sapiens, U-251; U251; single dose 10 µM; negative = lethal; read-out: Percent growth inhibition
Procedure: as §1

[18] = system: 786-0; experiment: NCI cytotoxicity screen, Renal Cancer panel; assay type: cell-based, human; details: Homo sapiens, single dose 10 µM, negative = lethal, read-out: Percent growth inhibition
Procedure: as §1

[19] = system: TK-10; experiment: NCI cytotoxicity screen, Renal Cancer panel; assay type: cell-based, human; details: Homo sapiens, single dose 10 µM, negative = lethal, read-out: Percent growth inhibition
Procedure: as §1

[20] = system: SN12C; experiment: NCI cytotoxicity screen, Renal Cancer panel; assay type: cell-based; details: Homo sapiens, single dose 10 µM, negative = lethal, read-out: Percent growth inhibition
Procedure: as §1

[21] = system: A498; experiment: NCI cytotoxicity screen, Renal Cancer panel; assay type: cell-based; details: Homo sapiens, single dose 10 µM, negative = lethal, read-out: Percent growth inhibition
Procedure: as §1

[22] = system: CAKI-1; experiment: NCI cytotoxicity screen, Renal Cancer panel; assay type: cell-based; details: Homo sapiens; CAKI-1; single dose 10 µM; negative = lethal; read-out: Percent growth inhibition
Procedure: as §1

[23] = system: SR; experiment: NCI cytotoxicity screen, Leukemia panel; assay type: cell-based; details: Homo sapiens, single dose 10 µM, negative = lethal, read-out: Percent growth inhibition
Procedure: as §1

[24] = system: HL-60(TB); experiment: NCI cytotoxicity screen, Leukemia panel; assay type: cell-based; details: Homo sapiens, HL-60, HL-60(TB); single dose 10 µM; negative = lethal; read-out: Percent growth inhibition
Procedure: as §1

[25] = system: RPMI-8226; experiment: NCI cytotoxicity screen, Leukemia panel; assay type: cell-based; details: Homo sapiens; RPMI-8226; single dose 10 µM; negative = lethal; read-out: Percent growth inhibition
Procedure: as §1

[26] = system: K-562; experiment: NCI cytotoxicity screen, Leukemia panel; assay type: cell-based; details: Homo sapiens, K562; K-562; single dose 10 µM; negative = lethal; read-out: Percent growth inhibition
Procedure: as §1

[27] = system: CCRF-CEM; experiment: NCI cytotoxicity screen, Leukemia panel; assay type: cell-based; details: Homo sapiens, single dose 10 µM, negative = lethal, read-out: Percent growth inhibition
Procedure: as §1

[28] = system: MOLT-4; experiment: NCI cytotoxicity screen, Leukemia panel; assay type: cell-based; details: Homo sapiens, MOLT-4, MOLT-4; single dose 10 µM; negative = lethal; read-out: Percent growth inhibition
Procedure: as §1

[29] = system: M14; experiment: NCI cytotoxicity screen, Melanoma panel; assay type: cell-based, human; details: Homo sapiens, single dose 10 µM, negative = lethal, read-out: Percent growth inhibition
Procedure: as §1

[30] = system: UACC-62; experiment: NCI cytotoxicity screen, Melanoma panel; assay type: cell-based, human; details: Homo sapiens, single dose 10 µM, negative = lethal, read-out: Percent growth inhibition
Procedure: as §1

[31] = system: LOX IMVI; experiment: NCI cytotoxicity screen, Melanoma panel; assay type: cell-based, human; details: Homo sapiens, single dose 10 µM, negative = lethal, read-out: Percent growth inhibition
Procedure: as §1

[32] = system: SK-OV-3; experiment: NCI cytotoxicity screen, Ovarian Cancer panel; assay type: cell-based; details: Homo sapiens, single dose 10 µM, negative = lethal, read-out: Percent growth inhibition
Procedure: as §1

[33] = system: IGROV1; experiment: NCI cytotoxicity screen, Ovarian Cancer panel; assay type: cell-based; details: Homo sapiens, IGROV-1, single dose 10 µM, negative = lethal, read-out: Percent growth inhibition
Procedure: as §1

[34] = system: OVCAR-8; experiment: NCI cytotoxicity screen, Ovarian Cancer panel; assay type: cell-based; details: Homo sapiens, single dose 10 µM, negative = lethal, read-out: Percent growth inhibition
Procedure: as §1

[35] = system: OVCAR-5; experiment: NCI cytotoxicity screen, Ovarian Cancer panel; assay type: cell-based; details: Homo sapiens, single dose 10 µM, negative = lethal, read-out: Percent growth inhibition
Procedure: as §1

[36] = system: NCI/ADR-RES; experiment: NCI cytotoxicity screen, Ovarian Cancer panel; assay type: cell-based; details: Homo sapiens, single dose 10 µM, negative = lethal, read-out: Percent growth inhibition
Procedure: as §1

[37] = system: OVCAR-4; experiment: NCI cytotoxicity screen, Ovarian Cancer panel; assay type: cell-based; details: Homo sapiens; OVCAR-4; single dose 10 µM; negative = lethal; read-out: Percent growth inhibition
Procedure: as §1

[38] = system: MDA-MB-435; experiment: NCI cytotoxicity screen, Melanoma panel; assay type: cell-based; details: Homo sapiens, MDA-MB-435, read-out: Percent growth inhibition
Procedure: as §1

[39] = system: SK-MEL-5; experiment: NCI cytotoxicity screen, Melanoma panel; assay type: cell-based; details: Homo sapiens, single dose 10 µM, negative = lethal, read-out: Percent growth inhibition
Procedure: as §1

[40] = system: MALME-3M; experiment: NCI cytotoxicity screen, Melanoma panel; assay type: cell-based; details: Homo sapiens; MALME-3M; single dose 10 µM; negative = lethal; read-out: Percent growth inhibition
Procedure: as §1

[41] = system: UACC-257; experiment: NCI cytotoxicity screen, Melanoma panel; assay type: cell-based; details: Homo sapiens, single dose 10 µM, negative = lethal, read-out: Percent growth inhibition
Procedure: as §1

[42] = system: SK-MEL-28; experiment: NCI cytotoxicity screen, Melanoma panel; assay type: cell-based; details: Homo sapiens, single dose 10 µM, negative = lethal, read-out: Percent growth inhibition
Procedure: as §1

c1cn2cc(-c3ccc4c(c3)ncn4C3CCCCC3)nc(-c3ccc4c(c3)ncn4C3CCCCC3)c2n1 [Compound 30, 6,8-bis(1-cyclohexyl-1H-benzo[d]imidazol-5-yl)imidazo[1,2-a]pyrazine]
inhibition at 10 µM [1]: 15.9% | inhibition at 10 µM [2]: 28.1% | inhibition at 10 µM [3]: 26% | inhibition at 10 µM [4]: < 1% | inhibition at 10 µM [5]: < 1% | inhibition at 10 µM [6]: 6.22% | inhibition at 10 µM [7]: 27.9% | inhibition at 10 µM [8]: < 1% | inhibition at 10 µM [9]: < 1% | inhibition at 10 µM [10]: 56.2% | logP [11]: 2.16 | inhibition at 10 µM [12]: 4.85% | inhibition at 10 µM [13]: 10.4% | inhibition at 10 µM [14]: 25.4% | inhibition at 10 µM [15]: 5.02% | inhibition at 10 µM [16]: 6.25% | inhibition at 10 µM [17]: 29.7% | inhibition at 10 µM [18]: 13.9% | inhibition at 10 µM [19]: < 1% | inhibition at 10 µM [20]: 13.9% | inhibition at 10 µM [21]: < 1% | inhibition at 10 µM [22]: 9.21% | inhibition at 10 µM [23]: 17.1% | inhibition at 10 µM [24]: 32.9% | inhibition at 10 µM [25]: 52.2% | inhibition at 10 µM [26]: 47.2% | inhibition at 10 µM [27]: 35.1% | inhibition at 10 µM [28]: 43.6% | inhibition at 10 µM [29]: < 1% | inhibition at 10 µM [30]: 12.4% | inhibition at 10 µM [31]: 11.7% | inhibition at 10 µM [32]: 11.8% | inhibition at 10 µM [33]: < 1% | inhibition at 10 µM [34]: 11.6% | inhibition at 10 µM [35]: < 1% | inhibition at 10 µM [36]: 4.12% | inhibition at 10 µM [37]: < 1% | inhibition at 10 µM [38]: < 1% | inhibition at 10 µM [39]: 20.5% | inhibition at 10 µM [40]: 8.16% | inhibition at 10 µM [41]: 5.79% | inhibition at 10 µM [42]: < 1%
